Results on 52 compounds are retold here after PubChem BioAssay AID1996.

As a reminder, the kinetic solubility is solubility judged after dilution from a stock solution rather than from solid.

Molecules are shown by their SMILES. In brackets after ≈: the same amount, converted by molar mass.

For this data set the following is noted: buffer; pH 7.4; 200.0 µM.
With `CCN(C(=O)CSc1nccc(=O)[nH]1)C1CCCCC1`, the kinetic solubility is more than 44.3 µg/mL.

Consider `CCOc1ccc(NC(=S)NC(=O)Cc2ccccc2)cc1`, for which the solubility (kinetic) came out at 1.8 µg/mL (≈ 5.73 µM).

As to `O=C(Cc1ccccc1)N1CCC2(CC1)NCCc1[nH]cnc12`, the kinetic solubility worked out at 43.1 µg/mL (≈ 139 µM).

As to `COC(OC)C(C)NC(=O)NC(=O)c1ccccc1Cl` (configuration not stated), the solubility (kinetic) turned out to be 39.2 µg/mL (≈ 130 µM).

Turning to `CCN1C(=O)CC(C(=O)OC)=C1C`, the solubility (kinetic) was 24.6 µg/mL (≈ 134 µM).

As to `CN(CC(=O)NCc1ccc2c(c1)OCO2)S(=O)(=O)c1ccc(Cl)cc1`, the solubility (kinetic) turned out to be 8.6 µg/mL (≈ 21.7 µM).

On to `CC(=O)Nc1cccc(C(=O)OCC(=O)c2ccccc2Cl)c1`, for which the kinetic solubility is 43 µg/mL (≈ 130 µM).

In the case of `O=C(COCc1cc(-c2ccco2)on1)NC1CCCCC1`, the kinetic solubility was 42.4 µg/mL (≈ 139 µM).

Take `N#C/C(=C\c1ccc(O)c(O)c1)C(=O)N1CCCC1`: the solubility (kinetic) worked out at 37.3 µg/mL (≈ 144 µM).

`CC(=O)Cc1nsc(Nc2ccc(F)cc2)n1` returned a kinetic solubility of 33.2 µg/mL (≈ 132 µM).

Regarding `CC(=O)CC(CC(=O)NC1CCCCC1)c1ccccc1` (configuration not stated), the kinetic solubility was more than 43.1 µg/mL.

For the compound `Cc1cc(C(=O)NC2CCCCC2)on1`, the solubility (kinetic) was more than 31.2 µg/mL.

As for `COc1ccccc1NC(=O)CN1CCSc2ccccc21`, the kinetic solubility is 3.1 µg/mL (≈ 9.86 µM).

On to `CN=C1S/C(=C\c2ccc(O)c(Br)c2)C(=O)N1C`, for which the kinetic solubility worked out at 16.7 µg/mL (≈ 51 µM).

In the case of `CC(=O)Nc1ccc2nc(NC(=O)CN3CCOCC3)sc2c1`, the kinetic solubility is more than 50.2 µg/mL.

In turn, `C=CCN(Cc1nc(-c2ccccc2)no1)C(=O)c1ccco1` registered a solubility (kinetic) of 38.4 µg/mL (≈ 124 µM).

The compound `CCN=C1S/C(=C\c2cc(Br)c(O)c(OC)c2)C(=O)N1CC` had a kinetic solubility of 1.3 µg/mL (≈ 3.37 µM).

`Cc1csc2c(N3CCCCC3)ncnc12` registered a solubility (kinetic) of more than 35 µg/mL.

In the case of `O=C(O)c1cn(C2CCCCC2)c2ccccc2c1=O`, the solubility (kinetic) is more than 40.7 µg/mL.

`Cn1ccnc1C(=O)c1cccc(Br)c1`: the kinetic solubility was more than 39.8 µg/mL.

Consider `CC(=O)c1cccc(NC(=O)NC(C)c2ccc3c(c2)OCO3)c1` (configuration not stated), for which the solubility (kinetic) is 6.9 µg/mL (≈ 21.1 µM).

The compound `Cc1noc(C)c1C(=O)OCC(=O)N(C)C1(C#N)CCCCC1` came in with a solubility (kinetic) of more than 47.9 µg/mL.

The compound `NC(=O)COC(=O)/C=C/c1ccccc1[N+](=O)[O-]` came in with a solubility (kinetic) of 33.1 µg/mL (≈ 132 µM).

For the compound `CCN(CC(=O)NCc1ccc(F)cc1)C(=O)COc1ccccc1[N+](=O)[O-]`, the kinetic solubility was more than 58.4 µg/mL.

On to `O=Cc1sc([O-])nc1-[n+]1ccc2ccccc2c1`, for which the solubility (kinetic) was 5.1 µg/mL (≈ 19.9 µM).

Take `CC(NC(=O)COC(=O)c1ccc([N+](=O)[O-])o1)c1ccccc1` (configuration not stated): the kinetic solubility was more than 47.7 µg/mL.

`CC(C)CNC(=S)N1CCC(Cc2ccccc2)CC1` gave a kinetic solubility of 9.3 µg/mL (≈ 32 µM).

In the case of `CC(C)c1ccc(N2C(=O)CC(Sc3ncccn3)C2=O)cc1` (configuration not stated), the kinetic solubility turned out to be 4 µg/mL (≈ 12.2 µM).

In the case of `COc1cccc2cc(C(C)OC(=O)Nc3ccc(C)cc3)oc12` (configuration not stated), the solubility (kinetic) is less than 0.7 µg/mL.

`COc1ccccc1-c1ccc(/C=N/O)o1`: the kinetic solubility was determined as 3.9 µg/mL (≈ 18 µM).

`O=C1CCCC/C1=C\Nc1ccc(S(=O)(=O)Nc2cnc3ccccc3n2)cc1` came in with a kinetic solubility of 15.9 µg/mL (≈ 38.9 µM).

In the case of `O=S(=O)(NCC(O)c1ccccc1)c1ccc(-c2ccccn2)s1` (configuration not stated), the solubility (kinetic) is more than 54.1 µg/mL.

Consider `Cc1cc2cc(OCc3ccccc3)ccc2n1C`, for which the kinetic solubility was less than 0.5 µg/mL.

For the compound `CCOC(=O)c1cc(C)sc1/N=C/C1C(=O)NC(=S)NC1=O`, the solubility (kinetic) was 4.7 µg/mL (≈ 13.8 µM).

As to `Cc1ccc(S(=O)(=O)Nc2cc(C)on2)cc1`, the kinetic solubility was determined as 28.1 µg/mL (≈ 111 µM).

With `CCCC(=O)N1CCC(O)(c2cccc(F)c2)CC1`, the solubility (kinetic) is more than 39.8 µg/mL.

Regarding `O=C1NC(=O)/C(=C/c2cc3c(cc2Br)OCO3)S1`, the solubility (kinetic) is more than 49.2 µg/mL.

On to `O=C1NC(=O)C(C(CC(=O)c2ccccc2)c2ccccc2)C(=O)N1` (configuration not stated), for which the solubility (kinetic) was more than 50.5 µg/mL.

As for `Cc1ccc(NC2CCCN(C(=O)c3cccnc3)C2)cc1C` (configuration not stated), the solubility (kinetic) is more than 46.4 µg/mL.

`Cc1cccc(NC(=O)/C(C#N)=C/c2ccc(F)cc2)n1`: the solubility (kinetic) turned out to be 1.5 µg/mL (≈ 5.33 µM).

In turn, `CC(=O)Oc1ccc(NC(=O)Cc2ccccc2)c(C(=O)O)c1` had a kinetic solubility of more than 47 µg/mL.

Compound `Cc1ccc(-n2c(C)nc3ccsc3c2=O)cc1` showed a solubility (kinetic) of more than 38.4 µg/mL.

In the case of `COc1ccc(CCNC(=O)COC(=O)C2CC2)cc1`, the kinetic solubility turned out to be 25.4 µg/mL (≈ 91.6 µM).

As for `NC(=O)c1ccc(N=C2C(=O)Nc3ccc([N+](=O)[O-])cc32)cc1`, the kinetic solubility stood at 13.1 µg/mL (≈ 42.2 µM).

In turn, `CCc1cccc2c(C(=O)CN3C(=O)NC4(CCCCC4)C3=O)c[nH]c12` showed a solubility (kinetic) of 7 µg/mL (≈ 19.8 µM).

`O=[N+]([O-])c1ccccc1-c1ccc(C(=S)N2CCCC2)o1` showed a kinetic solubility of 9.4 µg/mL (≈ 31.1 µM).

Turning to `COCn1c(C(O)c2ccccc2)cc2ccccc21` (configuration not stated), the kinetic solubility amounted to 38.9 µg/mL (≈ 146 µM).

For `Cc1ccccc1CSCC(=O)Nc1ccccc1Br`, the solubility (kinetic) came out at 4.5 µg/mL (≈ 12.8 µM).

For `Cc1cc(NS(=O)(=O)c2ccc(NC(=O)c3ccccc3F)cc2)no1`, the solubility (kinetic) was more than 56.3 µg/mL.

`COC(=O)c1cc(NC(=O)c2c(C)noc2C)ccc1N1CCOCC1` had a kinetic solubility of more than 53.9 µg/mL.

Regarding `Cn1c(N)c(C(=O)COC(=O)c2ccc(F)cc2Cl)c(=O)n(C)c1=O`, the solubility (kinetic) is 4.5 µg/mL (≈ 12.2 µM).

Compound `CCCCC1C2C(=O)N(c3ccc(C)cc3)C(=O)C2ON1c1ccccc1` (configuration not stated) yielded a kinetic solubility of 46.2 µg/mL (≈ 127 µM).
